Results taken from patent US11530227B2, “Heterocyclic compounds and their use in preventing or treating bacterial infections” (MUTABILIS, priority 2018, dated 2022).
Where a name gives a salt, the structure may show the parent alone. Read-outs that look alike come from different tables or passages of the source.

Tests used:
[1] = molecular target: T1, TEM-1 (Escherichia coli, UniProt P62593); experiment: β-lactamase inhibitory activity, nitrocefin hydrolysis; assay type: biochemical
T1 construct: made in house; host or cells: E. coli

[2] = molecular target: T2, SHV-1 (Klebsiella pneumoniae, UniProt P0AD64); experiment: biochemical
T2 construct: made in house; host or cells: E. coli

[3] = molecular target: T3, CTX-M-15 (Escherichia coli, UniProt Q9EXV5); experiment: biochemical
T3 construct: made in house; host or cells: E. coli

[4] = molecular target: T4, KPC-2 (Klebsiella pneumoniae, UniProt Q9F663); experiment: biochemical
T4 construct: made in house; host or cells: E. coli

[5] = molecular target: T5, AmpC P. aeruginosa (Pseudomonas aeruginosa, UniProt P24735); experiment: biochemical
T5 construct: made in house; host or cells: E. coli

[6] = molecular target: T6, OXA-1 (Escherichia coli, UniProt P13661); experiment: biochemical
T6 construct: made in house; host or cells: E. coli

[7] = molecular target: T7, OXA-11 (Pseudomonas aeruginosa, UniProt Q06778); experiment: biochemical
T7 construct: made in house; host or cells: E. coli

[8] = molecular target: T8, OXA-15 (Pseudomonas aeruginosa, UniProt Q51574); experiment: biochemical
T8 construct: made in house; host or cells: E. coli

[9] = molecular target: T9, OXA-48 (Klebsiella pneumoniae, UniProt Q6XEC0); experiment: biochemical
T9 construct: made in house; host or cells: E. coli

[10] = molecular target: P99 AmpC (Enterobacter cloacae, UniProt P05364); experiment: biochemical
[11] = test system: E. coli ECO 190317; experiment: MIC of compounds alone, broth microdilution (CLSI); conditions: Escherichia coli, ECO190317, read-out: MIC alone
[12] = class (A), nitrocefin 200 μM, 30 min pre-incubation, room temperature, read-out: BLA IC50 TEM-1
[13] = class (A), nitrocefin 200 μM, 30 min pre-incubation, room temperature, read-out: BLA IC50 CTX-M-15
[14] = class (A), nitrocefin 200 μM, 30 min pre-incubation, room temperature, read-out: BLA IC50 KPC-2
[15] = class (D), nitrocefin 200 μM, 30 min pre-incubation, room temperature, read-out: BLA IC50 OXA-1
[16] = class (D), nitrocefin 200 μM, 30 min pre-incubation, room temperature, read-out: BLA IC50 OXA-48
[17] = class (C), nitrocefin 200 μM, 30 min pre-incubation, room temperature, read-out: BLA IC50 AmpC (PAE)

| SMILES | IC50 [1, 12] | IC50 [2] | IC50 [3, 13] | IC50 [4, 14] | IC50 [5] | IC50 [6, 15] | IC50 [7] | IC50 [8] | IC50 [9, 16] | IC50 [10] | MIC [11] | IC50 [5, 17] | IC50 [1] | IC50 [3] | IC50 [4] | IC50 [6] | IC50 [9] |
| --- | --- | --- | --- | --- | --- | --- | --- | --- | --- | --- | --- | --- | --- | --- | --- | --- | --- |
| CCOC(=O)[C@@H]1c2c(sc3ccccc23)[C@@H]2CN1C(=O)N2OS(=O)(=O)[O-].[Na+] (relative stereo) [Example 2, sulfate] | 0.22 nM | 0.43 nM | 2.6 nM | 0.94 nM | 2.5 nM | 37 nM | 2.2 nM | 830 nM | 0.66 nM | 0.51 nM |  |  |  |  |  |  |  |
| CCOC(=O)[C@@H]1c2c(sc3ccccc23)[C@@H]2CN1C(=O)N2OS(=O)(=O)[O-].[Na+] (relative stereo) [Example 2] |  |  |  |  |  |  |  |  |  |  | > 32 µg/mL |  |  |  |  |  |  |
| NC(=O)[C@@H]1c2c(sc3ccccc23)[C@@H]2CN1C(=O)N2OS(=O)(=O)[O-].[Na+] (relative stereo) [Example 3, sulfate] | 1.3 nM | 2.2 nM | 2.5 nM | 9.3 nM |  | 190 nM | 31 nM | 7100 nM | 4.8 nM | 4.5 nM |  | 62 nM |  |  |  |  |  |
| NC(=O)[C@@H]1c2c(sc3ccccc23)[C@@H]2CN1C(=O)N2OS(=O)(=O)[O-].[Na+] (relative stereo) [Example 3] |  |  |  |  |  |  |  |  |  |  | 8 µg/mL |  |  |  |  |  |  |
| CCOC(=O)[C@@H]1c2c(n(C)c3ccccc23)[C@@H]2CN1C(=O)N2OS(=O)(=O)[O-].[Na+] (relative stereo) [Example 6, sulfate] | 0.2 nM | 0.25 nM | 1.5 nM | 4.2 nM |  | 1300 nM | 160 nM | 6500 nM | 4.6 nM | 2 nM |  | 3.6 nM |  |  |  |  |  |
| CCOC(=O)[C@@H]1c2c(n(C)c3ccccc23)[C@@H]2CN1C(=O)N2OS(=O)(=O)[O-].[Na+] (relative stereo) [Example 6] |  |  |  |  |  |  |  |  |  |  | > 32 µg/mL |  |  |  |  |  |  |
| CC(C)(O/N=C(\C(=O)N[C@@H]1C(=O)N2C(C(=O)[O-])=C(C[n+]3ccccc3)CS[C@H]12)c1csc(N)n1)C(=O)O [CAZ, Ceftazidime, reference compound] |  |  |  |  |  |  |  |  |  |  | 128 µg/mL |  |  |  |  |  |  |
| O=C1N2Cc3c(sc4ccccc34)C(C2)N1OS(=O)(=O)[O-].[Na+] (stereo not drawn) [Example 1, Sodium (2,5-methano-3-oxo-1,5-dihydrobenzothiopheno[2,3-e][1,3]diazepin-4-yl) sulfate] | 0.65 nM | 4.1 nM | 1 nM | 26 nM | 8.8 nM | 120 nM | 41 nM | 3400 nM | 1.1 nM | 17 nM | 16 µg/mL |  |  |  |  |  |  |
| O=C1N2Cc3nc4ccccc4cc3C(C2)N1OS(=O)(=O)[O-].[Na+] (stereo not drawn) [Example 4, sodium 1,4-methano-3-oxo-1,5-dihydro-[1,3]diazepino[5,6-b]quinolin-2-yl) sulfate] | 36 nM | 150 nM | 9.9 nM | 370 nM |  | 4100 nM | 590 nM | 13000 nM | 1.5 nM | 120 nM |  | 2800 nM |  |  |  |  |  |
| O=C1N2Cc3nc4ccccc4cc3C(C2)N1OS(=O)(=O)[O-].[Na+] (stereo not drawn) [Example 4] |  |  |  |  |  |  |  |  |  |  | 8 µg/mL |  |  |  |  |  |  |
| O=C1N2Cc3nc4cnccc4cc3C(C2)N1OS(=O)(=O)[O-].[Na+] (stereo not drawn) [Example 5, sodium (1,4-methano-3-oxo-1,5-dihydro-[1,3]diazepino[5,6-b][1,7]naphthyridin-2-yl) sulfate] | 14 nM | 77 nM | 14 nM | 160 nM |  | 1700 nM | 190 nM | 1800 nM | 1 nM | 100 nM | 4 µg/mL | 3600 nM |  |  |  |  |  |
| CCN(CC)C(=O)N1CCc2sc3c(c2C1)CN1CC3N(OS(=O)(=O)O)C1=O (stereo not drawn) [Example 7, sodium [9-(diethylcarbamoyl)-2,5-methano-3-oxo-5,7,8,10-tetrahydro-1H-pyrido[3,4]thieno[1,3-d][1,3]diazepin-4-yl] sulfate] |  | 13 nM | 1.3 nM | 26 nM |  | 5100 nM | 110 nM | 14000 nM | 6.8 nM |  | > 32 µg/mL | 550 nM | 43 nM |  |  |  |  |
| O=C1N2Cc3c(sc4c3CNCC4)C(C2)N1OS(=O)(=O)O (stereo not drawn) [Example 8, (2,5-methano-3-oxo-1,5,7,8,9,10-hexahydropyrido[2,3]thieno[2,4-d][1,3]diazepin-4-yl) hydrogen Sulfate] | 9.6 nM | 26 nM | 6.1 nM | 1300 nM |  | 15000 nM | 840 nM | 30000 nM | 18 nM | 1600 nM | 1 µg/mL | 8600 nM |  |  |  |  |  |
| Cn1c2c(c3scnc31)C1CN(C2)C(=O)N1OS(=O)(=O)O (stereo not drawn) [Example 9, sodium (6,9-methano-4-methyl-7-oxo-5,9-dihydrothiazolo[3,4]pyrrolo[1,3-d][1,3]diazepin-8-yl) sulfate] |  | 0.57 nM |  |  | 590 nM |  | 62 nM | 940 nM |  | 120 nM | > 32 µg/mL |  | 0.49 nM | 1.1 nM | 26 nM | 290 nM | 1.2 nM |
